What was measured:
[1] = target: T1, recombinant human transglutaminase 2 (Homo sapiens, UniProt P21980); assay: Transglutaminase assay (DCC-assay): incorporation of dansylcadaverine into dimethylcasein; type: biochemical; conditions: for IC50: recombinant human TG2 10 nM, dansylcadaverine incorporation into dimethylcasein, read-out: IC50 TG2
T1 construct: purchased Zedira T022
T1 sequence (P21980 1-687): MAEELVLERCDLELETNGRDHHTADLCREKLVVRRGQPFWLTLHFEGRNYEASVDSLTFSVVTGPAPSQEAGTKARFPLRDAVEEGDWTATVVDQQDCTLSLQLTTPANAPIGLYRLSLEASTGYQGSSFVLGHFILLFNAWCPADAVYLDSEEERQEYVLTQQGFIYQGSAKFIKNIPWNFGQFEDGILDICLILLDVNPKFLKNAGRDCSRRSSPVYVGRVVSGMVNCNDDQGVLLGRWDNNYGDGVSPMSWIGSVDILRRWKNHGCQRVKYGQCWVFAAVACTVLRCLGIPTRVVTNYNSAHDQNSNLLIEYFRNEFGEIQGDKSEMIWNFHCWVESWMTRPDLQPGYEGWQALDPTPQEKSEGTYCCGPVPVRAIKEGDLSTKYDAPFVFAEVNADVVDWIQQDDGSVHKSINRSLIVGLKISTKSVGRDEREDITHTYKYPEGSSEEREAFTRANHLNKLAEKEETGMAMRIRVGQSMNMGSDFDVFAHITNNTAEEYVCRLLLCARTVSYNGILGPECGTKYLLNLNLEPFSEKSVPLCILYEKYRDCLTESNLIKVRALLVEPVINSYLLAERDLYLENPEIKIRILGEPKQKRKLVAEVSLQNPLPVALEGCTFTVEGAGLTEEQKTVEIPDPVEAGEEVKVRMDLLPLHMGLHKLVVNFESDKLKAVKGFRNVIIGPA
Description: To illustrate the advantage of branched alkyl moieties over aromatic moieties, we refer to reference compounds Ref. 2 (ZED1227, U.S. Pat. No. 9,434,763 B2) and Ref. 3 (A8, ZED1047). Inhibition data were determined using the classical fluorescent transamidation assay (dansylcadaverine incorporation into methylated casein, DCC-assay) as described [Buchold, C.; Hils, M.; Gerlach, U.; Weber, J.; Pelzer, C.; Heil, A.; Aeschlimann, D.; Pasternack, R. Features of ZED1227: The First-In-Class Tissue Transglutaminase Inhibitor Undergoing Clinical Evaluation for the Treatment of Celiac Disease. Cells 2022, 11, 1667. https://doi.org/10.3390/cells11101667]. Casein is one of the best known high molecular weight (24 kDa) protein substrates for transglutaminases. Please note, the IC50 value of Ref. 3 (A8) published in U.S. Pat. No. 9,434,763 B2 cannot be compared to the present data, relying on a fluorogenic isopeptidase assay.
To this extent, inhibition data were determined using the classical fluorescent transamidation assay (dansylcadaverine incorporation into methylated casein, DCC-assay) as described in Büchold et al. [Büchold, C.; Hils, M.; Gerlach, U.; Weber, J.; Pelzer, C.; Heil, A.; Aeschlimann, D.; Pasternack, R. Features of ZED1227: The First-In-Class Tissue Transglutaminase Inhibitor Undergoing Clinical Evaluation for the Treatment of Celiac Disease. Cells 2022, 11, 1667. https://doi.org/10.3390/cells11101667]. Casein is one of the best known high molecular weight (24 kDa) protein substrates for transglutaminases. Inhibition data of the inventive compounds was compared with inhibition of compounds disclosed in U.S. Pat. No. 9,434,763 B2, particularly, compound A8, which is denoted herein as Reference 3. It is noteworthy that the IC50 values of compounds A8 published in U.S. Pat. No. 9,434,763 B2 and E16 from U.S. Pat. No. 11,072,634 B2 cannot be compared to the present data, relying on a fluorogenic isopeptidase assay.
For the determination of potency of inhibitors against tissue transglutaminase, the incorporation of dansylcadaverine into dimethylcasein (Zedira product T036, Lorand et al., Anal Biochem, 1971, 44:221-31) was measured using recombinant human transglutaminase 2 (Zedira Product T022).
The tissue transglutaminase is diluted in buffer (50 mM Tris-HCl, 7.5 mM CaCl2), 150 mM NaCl, pH=7.4). The final concentration of TG2 in the assay is 10 nM.
A 10 mM inhibitor stock solution is prepared in DMSO, and from this a serial 1:2-fold dilution series is prepared also in DMSO. Each of the initial dilutions is subsequently diluted 1:50-fold with buffer (50 mM Tris-HCl, 7.5 mM CaCl2), 150 mM NaCl, pH=7.4) to yield the final working dilutions containing 2% (v/v) DMSO.
15 μl of inhibitor working dilution are added per well of a 96 well microtiter plate. As control, 15 μl of a 2% (v/v) DMSO solution prepared using the buffer mentioned above are added per well.
Immediately before starting the assay, 600 μl transglutaminase working solution are added to 11.4 ml assay buffer (50 mM Tris-HCl, 10 mM CaCl2), 10 mM glutathione, 2.5% glycerol, 16.7 µM dansylcadaverine, 4 uM N,N-dimethylcasein, 200 mM NaCl, pH=8.0). 285 μl of this reaction mix are added per well containing the inhibitor.
Increase in fluorescence is measured using λex=330 nm and λem=500 nm at 37° C. for 30 min. A slope of the increase in fluorescence between 20 and 30 min is calculated for determination of the IC50 value (inhibitor concentration at which 50% of the initial activity is blocked).
Analysis of enzymatic activity is performed by calculation of the slope of an increase in fluorescence intensity. IC50 values are calculated by plotting the enzymatic activity (as percentage from control containing 2% DMSO instead of inhibitor) against the inhibitor concentration. IC50 is defined as the inhibitor concentration blocking 50% of initial enzyme activity.

[2] = logD by shake flask method (octanol / PBS pH 7.4, HPLC); type: physicochemical; conditions: octanol / PBS pH 7.4, shake flask
Description: In order to classify the inventive compounds according to their lipophilicity, LogD values (distribution coefficient) were determined by means of the well-established shake flask method, measuring the partition of a compound between an octanol and phosphate-buffered saline (PBS, pH 7.4) by HPLC.
The LogD is pH dependent and is a “predictor” for in-vivo properties. LogD combines lipophilicity (intrinsic structural property of the molecule, logP) and ionizability (pKa). Compounds with a moderate lipophilicity (LogD values from 0 to 3) are usually advantaged for oral absorption, being in balance between solubility and permeability. However, sophisticated formulation of a compound might improve oral bioavailability for highly lipophilic compounds.

[3] = Caco-2 permeability assay (CacoReady kit); type: in vitro ADME; conditions: human, Caco-2, Caco-2 barrier, CacoReady kit; above 1×10^−6 cm/s classified as permeable
Description: Permeability coefficients (Papp values) were obtained from Caco-2 barrier studies predicting oral/intestinal bioavailability of the tested compounds. The assays were performed by using CacoReady™ ready-to-use kits from ReadyCell according to the manufacturers protocol.

Row | IC50 [1] | logD [2] | Papp [3] | fold more potent compared to Ref. 3 ([1]; DCC-assay, IC50 ratio versus Ref. 3 (A8)) | Compound
1 | < 40 nM | 3 to 5 | 1 to 10 ×10⁻⁶ cm/s |  | CNC(=O)C(=O)CC[C@H](NC(=O)c1cc2ccccc2s1)C(=O)Nc1cccn(CC(=O)NC2C3CC4CC(C3)CC2C4)c1=O (stereo partly drawn)
2 | < 40 nM | 3 to 5 | 1 to 10 ×10⁻⁶ cm/s |  | CNC(=O)C(=O)CC[C@H](NC(=O)c1cc2cc(Br)ccc2s1)C(=O)Nc1cccn(CC(=O)NC2C3CC4CC(C3)CC2C4)c1=O (stereo partly drawn)
3 | 40 to 400 nM | 1 to 3 | 1 to 10 ×10⁻⁶ cm/s |  | CNC(=O)C(=O)CC[C@H](NC(=O)c1oc2ccccc2c1C)C(=O)Nc1cccn(CC(=O)NC23CC4CC5C2C[C@@H]2C[C@H]5C(C4)[C@H]3C2)c1=O (stereo in doubt) [II-104, (S)-N1-(1-(2-(diamantane-1-amino)-2-oxoethyl)-2-oxo-1,2-dihydropyridin-3-yl)-N6-methyl-2-(3-methylbenzofuran-2-carboxamido)-5-oxohexanediamide]
4 | < 40 nM | 1 to 3 | 1 to 10 ×10⁻⁶ cm/s |  | CNC(=O)C(=O)CC[C@H](NC(=O)c1cc2ccccc2o1)C(=O)Nc1cccn(CC(=O)NC2C3CC4CC(C3)CC2C4)c1=O (stereo partly drawn) [II-2, (S)-2-(benzofuran-2-carboxamido)-N1-(1-(2-(2-adamantylamino)-2-oxoethyl)-2-oxo-1,2-dihydropyridin-3-yl)-N6-methyl-5-oxohexanediamide]
5 | < 40 nM | 1 to 3 | 1 to 10 ×10⁻⁶ cm/s |  | CNC(=O)C(=O)CC[C@H](NC(=O)c1oc2ccccc2c1Cl)C(=O)Nc1cccn(CC(=O)NC2C3CC4CC(C3)CC2C4)c1=O (stereo partly drawn) [II-4, (S)-2-(3-chlorobenzofuran-2-carboxamido)-N1-(1-(2-(2-adamantylamino)-2-oxoethyl)-2-oxo-1,2-dihydropyridin-3-yl)-N6-methyl-5-oxohexanediamide]
6 | < 40 nM | 3 to 5 | 1 to 10 ×10⁻⁶ cm/s |  | CNC(=O)C(=O)CC[C@H](NC(=O)c1cc2c(Br)cccc2o1)C(=O)Nc1cccn(CC(=O)NC2C3CC4CC(C3)CC2C4)c1=O (stereo partly drawn) [II-5, (S)-2-(4-bromobenzofuran-2-carboxamido)-N1-(1-(2-(2-adamantylamino)-2-oxoethyl)-2-oxo-1,2-dihydropyridin-3-yl)-N6-methyl-5-oxohexanediamide]
7 | < 40 nM | 1 to 3 | 1 to 10 ×10⁻⁶ cm/s |  | CNC(=O)C(=O)CC[C@H](NC(=O)c1cc2ccccc2[nH]1)C(=O)Nc1cccn(CC(=O)NC2C3CC4CC(C3)CC2C4)c1=O (stereo partly drawn) [II-9, (S)-2-(1H-indole-2-carboxamido)-N1-(1-(2-(2-adamantylamino)-2-oxoethyl)-2-oxo-1,2-dihydropyridin-3-yl)-N6-methyl-5-oxohexanediamide]
8 | < 40 nM | 3 to 5 | < 1 ×10⁻⁶ cm/s |  | CNC(=O)C(=O)CC[C@H](NC(=O)c1cc2c(F)c(F)ccc2[nH]1)C(=O)Nc1cccn(CC(=O)NC2C3CC4CC(C3)CC2C4)c1=O (stereo partly drawn) [II-10, (S)-2-(4,5-difluoro-1H-indole-2-carboxamido)-N1-(1-(2-(2-adamantylamino)-2-oxoethyl)-2-oxo-1,2-dihydropyridin-3-yl)-N6-methyl-5-oxohexanediamide]
9 | < 40 nM | 1 to 3 | 1 to 10 ×10⁻⁶ cm/s |  | CNC(=O)C(=O)CC[C@H](NC(=O)c1[nH]c2ccccc2c1C)C(=O)Nc1cccn(CC(=O)NC2C3CC4CC(C3)CC2C4)c1=O (stereo partly drawn) [II-11, (S)-N1-(1-(2-(2-adamantylamino)-2-oxoethyl)-2-oxo-1,2-dihydropyridin-3-yl)-N6-methyl-2-(3-methyl-1H-indole-2-carboxamido)-5-oxohexanediamide]
10 | 40 to 400 nM | 3 to 5 | < 1 ×10⁻⁶ cm/s |  | CNC(=O)C(=O)CC[C@H](NC(=O)c1nc2ccccc2[nH]1)C(=O)Nc1cccn(CC(=O)NC2C3CC4CC(C3)CC2C4)c1=O (stereo partly drawn) [II-12, (S)-2-(1H-benzo[d]imidazole-2-carboxamido)-N1-(1-(2-(2-adamantylamino)-2-oxoethyl)-2-oxo-1,2-dihydropyridin-3-yl)-N6-methyl-5-oxohexanediamide]
11 | < 40 nM | 1 to 3 | 1 to 10 ×10⁻⁶ cm/s |  | CNC(=O)C(=O)CC[C@H](NC(=O)C1Cc2ccccc2C1)C(=O)Nc1cccn(CC(=O)NC2C3CC4CC(C3)CC2C4)c1=O (stereo partly drawn) [II-13, (S)-2-(2,3-dihydro-1H-indene-2-carboxamido)-N1-(1-(2-(2-adamantylamino)-2-oxoethyl)-2-oxo-1,2-dihydropyridin-3-yl)-N6-methyl-5-oxohexanediamide]
12 | < 40 nM | 1 to 3 | 1 to 10 ×10⁻⁶ cm/s |  | CNC(=O)C(=O)CC[C@H](NC(=O)c1sc(Br)nc1C)C(=O)Nc1cccn(CC(=O)NC2C3CC4CC(C3)CC2C4)c1=O (stereo partly drawn) [II-14, (S)--(2-bromo-4-methylthiazole-5-carboxamido)-N1-(1-(2-(2-adamantylamino)-2-oxoethyl)-2-oxo-1,2-dihydropyridin-3-yl)-N6-methyl-5-oxohexanediamide]
13 | 400 to 2500 nM |  |  |  | CNC(=O)C(=O)CC[C@H](NC(=O)c1cn[nH]n1)C(=O)Nc1cccn(CC(=O)NC2C3CC4CC(C3)CC2C4)c1=O (stereo partly drawn) [II-132, (S)-N1-(1-(2-(2-adamantylamino)-2-oxoethyl)-2-oxo-1,2-dihydropyridin-3-yl)-N6-methyl-5-oxo-2-(1H-1,2,3-triazole-4-carboxamido)hexanediamide]
14 | 40 to 400 nM |  |  | 80 fold | CCC(CC)CNC(=O)Cn1cccc(NC(=O)[C@H](CC/C=C/C(=O)OC)NC(=O)c2cncn2C)c1=O [Ref. 2, reference compound]

Reference: US20240383856A1 (Zedira GmbH, priority 2021, published 2024)
